PubChem BioAssay (NCI)
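Cells were grown in 96-well plates and exposed to each compound for 48 hours at five concentrations; endpoints were interpolated linearly between bracketing concentrations, or set to the highest concentration if not reached. The concentration for full growth arrest is given as TGI.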

Columns and labels:
Experiment in all cases: growth of human tumour cells (NCI), 48 h
[1] = system: SK-OV-3 ovarian
[2] = system: SNB-75 CNS
[3] = system: DU-145 prostate
[4] = system: OVCAR-8 ovarian
[5] = system: UACC-257 melanoma
[6] = system: CAKI-1 renal
[7] = system: 786-0 renal
[8] = system: NCI-H23 lung
[9] = system: U251 CNS
[10] = system: BT-549 breast
[11] = system: T-47D breast
[12] = system: COLO 205 colon
[13] = system: SW-620 colon
[14] = system: NCI-H460 lung
[15] = system: HCT-15 colon
[16] = system: SN12C renal
[17] = system: EKVX NSCLC
[18] = system: HS 578T breast
[19] = system: LOX IMVI melanoma
[20] = system: SK-MEL-2 melanoma
[21] = system: A549 NSCLC
[22] = system: SF-268 CNS
[23] = system: SK-MEL-28 melanoma
[24] = system: OVCAR-5 ovarian
[25] = system: K-562 leukemia
[26] = system: RPMI-8226 leukemia
[27] = system: IGROV1 ovarian
[28] = system: UACC-62 melanoma
[29] = system: OVCAR-4 ovarian
[30] = system: HCT-116 colon
[31] = system: SF-295 CNS
[32] = system: UO-31 renal
[33] = system: NCI-H522 lung
[34] = system: MDA-N
[35] = system: MCF7 breast
[36] = system: SNB-19 CNS
[37] = system: HT29 colon
[38] = system: NCI-H226 lung
[39] = system: MDA-MB-435
[40] = system: TK-10 renal
[41] = system: HL-60(TB) leukemia
[42] = system: MALME-3M melanoma
[43] = system: NCI/ADR-RES ovarian
[44] = system: ACHN renal
[45] = system: OVCAR-3 ovarian
[46] = system: CCRF-CEM leukemia
[47] = system: KM12 colon
[48] = system: M14 melanoma
[49] = system: SK-MEL-5 melanoma
[50] = system: HOP-62 NSCLC
[51] = system: PC-3 prostate
[52] = system: HOP-92 NSCLC
[53] = system: MOLT-4 leukemia
[54] = system: SR leukemia
[55] = system: MDA-MB-231 breast
[56] = system: A498 renal
[57] = system: SF-539 CNS
[58] = system: HCC-2998 colon

## CCOC(=O)c1c(SCC#N)n(-c2ccccc2)c(=S)n(-c2ccccc2)c1=O
[1]
  TGI: > 100 µM
[2]
  TGI: 90.3 µM
[3]
  TGI: > 100 µM
[4]
  TGI: > 100 µM
[5]
  TGI: > 100 µM
[6]
  TGI: > 100 µM
[7]
  TGI: > 100 µM
[8]
  TGI: > 100 µM
[9]
  TGI: > 100 µM
[10]
  TGI: > 100 µM
[11]
  TGI: > 100 µM
[12]
  TGI: > 100 µM
[13]
  TGI: > 100 µM
[14]
  TGI: > 100 µM
[15]
  TGI: > 100 µM
[16]
  TGI: > 100 µM
[17]
  TGI: > 100 µM
[18]
  TGI: > 100 µM
[19]
  TGI: > 100 µM
[20]
  TGI: > 100 µM
[21]
  TGI: > 100 µM
[22]
  TGI: > 100 µM
[23]
  TGI: > 100 µM
[24]
  TGI: > 100 µM
[25]
  TGI: > 100 µM
[26]
  TGI: > 100 µM
[27]
  TGI: > 100 µM
[28]
  TGI: > 100 µM
[29]
  TGI: > 100 µM
[30]
  TGI: > 100 µM
[31]
  TGI: > 100 µM
[32]
  TGI: > 100 µM
[33]
  TGI: > 100 µM
[34]
  TGI: > 100 µM
[35]
  TGI: > 100 µM
[36]
  TGI: > 100 µM
[37]
  TGI: > 100 µM
[38]
  TGI: > 100 µM
[39]
  TGI: > 100 µM
[40]
  TGI: > 100 µM
[41]
  TGI: > 100 µM
[42]
  TGI: > 100 µM
[43]
  TGI: > 100 µM
[44]
  TGI: > 100 µM
[45]
  TGI: > 100 µM
[46]
  TGI: > 100 µM
[47]
  TGI: > 100 µM
[48]
  TGI: > 100 µM
[49]
  TGI: > 100 µM
[50]
  TGI: > 100 µM
[51]
  TGI: > 100 µM
[52]
  TGI: 93.3 µM
[53]
  TGI: 67.6 µM
[54]
  TGI: > 100 µM

## Cc1occc1C(=S)Nc1ccc(Cl)c(C(=O)OCC2CC2)c1
[1]
  TGI: > 100 µM
[2]
  TGI: 70.1 µM
[3]
  TGI: > 100 µM
[4]
  TGI: > 100 µM
[5]
  TGI: > 100 µM
[6]
  TGI: > 100 µM
[7]
  TGI: > 100 µM
[8]
  TGI: > 100 µM
[9]
  TGI: > 100 µM
[10]
  TGI: 81.5 µM
[11]
  TGI: > 100 µM
[12]
  TGI: > 100 µM
[13]
  TGI: > 100 µM
[14]
  TGI: > 100 µM
[15]
  TGI: > 100 µM
[16]
  TGI: > 100 µM
[17]
  TGI: > 100 µM
[55]
  TGI: > 100 µM
[18]
  TGI: > 100 µM
[19]
  TGI: > 100 µM
[20]
  TGI: > 100 µM
[21]
  TGI: > 100 µM
[22]
  TGI: > 100 µM
[23]
  TGI: > 100 µM
[24]
  TGI: > 100 µM
[25]
  TGI: > 100 µM
[26]
  TGI: 85.5 µM
[27]
  TGI: > 100 µM
[28]
  TGI: > 100 µM
[29]
  TGI: > 100 µM
[30]
  TGI: > 100 µM
[31]
  TGI: > 100 µM
[32]
  TGI: > 100 µM
[33]
  TGI: > 100 µM
[34]
  TGI: > 100 µM
[35]
  TGI: > 100 µM
[36]
  TGI: > 100 µM
[56]
  TGI: > 100 µM
[37]
  TGI: > 100 µM
[38]
  TGI: > 100 µM
[57]
  TGI: > 100 µM
[39]
  TGI: > 100 µM
[40]
  TGI: > 100 µM
[41]
  TGI: 75.3 µM
[42]
  TGI: > 100 µM
[43]
  TGI: > 100 µM
[44]
  TGI: > 100 µM
[45]
  TGI: > 100 µM
[46]
  TGI: 91.5 µM
[58]
  TGI: > 100 µM
[47]
  TGI: 96.3 µM
[48]
  TGI: > 100 µM
[49]
  TGI: > 100 µM
[51]
  TGI: > 100 µM
[52]
  TGI: > 100 µM
[53]
  TGI: > 100 µM
